Marks after values point to notes of the source that are not given here.
System: MCF7 cells
Assay: Immuno-staining of protein expression and protein phosphorylation, MCF7 cells
Assay type: cell-based
Design: ATM level / P-AMPKa level / P-317 (ULK1) level / ATG5 level / HDAC8 level / BIM level: scale not given here
Procedure: ZR75-1 and MCF7 cells were treated with vehicle control, GZ17-6.02, Palbociclib or the drugs combined for 3 hours and for 6 hours. Cells were fixed in place and immuno-staining performed with in house validated antibodies to detect protein expression and protein phosphorylation.

CC(=O)c1c(C)c2cnc(Nc3ccc(N4CCNCC4)cn3)nc2n(C2CCCC2)c1=O [PALBO, Palbociclib]
AKT level (MCF7, 3 h): 100
AMPKa level (MCF7, 3 h): 102
ATG5 level (MCF7, 3 h): 107
ATG13 level (MCF7, 3 h): 100
ATM level (MCF7, 3 h): 100
BAK level (MCF7, 3 h): 95
BAX level (MCF7, 3 h): 103
BCL-XL level (MCF7, 3 h): 99
BIM level (MCF7, 3 h): 109
Beclin1 level (MCF7, 3 h): 113#
CD95 level (MCF7, 3 h): 101
CHOP level (MCF7, 3 h): 112
Cyclin D level (MCF7, 3 h): 104
Cyclin E level (MCF7, 3 h): 104
ER level (MCF7, 3 h): 99
ERBB1 level (MCF7, 3 h): 99
ERBB2 level (MCF7, 3 h): 100
ERBB3 level (MCF7, 3 h): 101
ERK1/2 level (MCF7, 3 h): 100
ERK2 level (MCF7, 3 h): 100
ERRB4 level (MCF7, 3 h): 99
FAS-L level (MCF7, 3 h): 108
GRP78 level (MCF7, 3 h): 114#
HDAC1 level (MCF7, 3 h): 100
HDAC2 level (MCF7, 3 h): 94
HDAC3 level (MCF7, 3 h): 97
HDAC4 level (MCF7, 3 h): 99
HDAC5 level (MCF7, 3 h): 99
HDAC6 level (MCF7, 3 h): 100
HDAC7 level (MCF7, 3 h): 100
HDAC8 level (MCF7, 3 h): 100
HDAC9 level (MCF7, 3 h): 99
HDAC10 level (MCF7, 3 h): 99
HDAC11 level (MCF7, 3 h): 100
IDO1 level (MCF7, 3 h): 97
JAK2 level (MCF7, 3 h): 99
JNK1/2 level (MCF7, 3 h): 100
LATS1/2 level (MCF7, 3 h): 100
MCL1 level (MCF7, 3 h): 95
MHCA level (MCF7, 3 h): 102
NEDD4 level (MCF7, 3 h): 96
NFkB level (MCF7, 3 h): 101
ODC level (MCF7, 3 h): 103
P-89 (TAZ) level (MCF7, 3 h): 105
P-109 (YAP) level (MCF7, 3 h): 106
P-127 (YAP) level (MCF7, 3 h): 102
P-317 (ULK1) level (MCF7, 3 h): 109
P-397 (YAP) level (MCF7, 3 h): 96
P-757 (ULK1) level (MCF7, 3 h): 98
P-909 (LATS1/2) level (MCF7, 3 h): 99
P-1079 (LATS1/2) level (MCF7, 3 h): 109
P-AMPKa level (MCF7, 3 h): 112
P-ATG13 level (MCF7, 3 h): 116#
P-ATM level (MCF7, 3 h): 105
P-ERBB1 level (MCF7, 3 h): 100
P-ERBB2 level (MCF7, 3 h): 99
P-ERBB3 level (MCF7, 3 h): 111
P-ERBB4 level (MCF7, 3 h): 102
P-ERK level (MCF7, 3 h): 101
P-JAK2 level (MCF7, 3 h): 101
P-JNK level (MCF7, 3 h): 89
P-KIT level (MCF7, 3 h): 100
P-MET level (MCF7, 3 h): 100
P-NFkB level (MCF7, 3 h): 100
P-PDGFRb level (MCF7, 3 h): 103
P-PERK level (MCF7, 3 h): 109
P-S2448 (mTOR) level (MCF7, 3 h): 98
P-S2481 (mTOR) level (MCF7, 3 h): 98
P-T308 (AKT) level (MCF7, 3 h): 96
P-Y694 (STAT5) level (MCF7, 3 h): 98
P-Y705 (STAT3) level (MCF7, 3 h): 98
P-eIF2a level (MCF7, 3 h): 107
P-p38 level (MCF7, 3 h): 97
P-p70 T389 level (MCF7, 3 h): 105
PD-L1 level (MCF7, 3 h): 100
PD-L2 level (MCF7, 3 h): 100
PDGFRb level (MCF7, 3 h): 100
PERK level (MCF7, 3 h): 101
PP1 level (MCF7, 3 h): 98
PTEN level (MCF7, 3 h): 103
STAT3 level (MCF7, 3 h): 100
STAT5 level (MCF7, 3 h): 100
TAZ level (MCF7, 3 h): 101
ULK1 level (MCF7, 3 h): 100
Y416 (c-SRC) level (MCF7, 3 h): 100
Y527 (c-SRC) level (MCF7, 3 h): 98
YAP level (MCF7, 3 h): 99
c-KIT level (MCF7, 3 h): 100
c-MET level (MCF7, 3 h): 91
c-SRC level (MCF7, 3 h): 100
eIF2a level (MCF7, 3 h): 99
mTOR level (MCF7, 3 h): 100
p38 level (MCF7, 3 h): 101
p70 S6K level (MCF7, 3 h): 99
AKT level (MCF7, 6 h): 100
AMPKa level (MCF7, 6 h): 100
ATG5 level (MCF7, 6 h): 114#
ATG13 level (MCF7, 6 h): 101
ATM level (MCF7, 6 h): 99
BAK level (MCF7, 6 h): 109
BAX level (MCF7, 6 h): 95
BCL-XL level (MCF7, 6 h): 94
BIM level (MCF7, 6 h): 113#
Beclin1 level (MCF7, 6 h): 117#
CD95 level (MCF7, 6 h): 100
CHOP level (MCF7, 6 h): 116#
Cyclin D level (MCF7, 6 h): 108
Cyclin E level (MCF7, 6 h): 104
ER level (MCF7, 6 h): 91
ERBB1 level (MCF7, 6 h): 101
ERBB2 level (MCF7, 6 h): 100
ERBB3 level (MCF7, 6 h): 100
ERK1/2 level (MCF7, 6 h): 100
ERK2 level (MCF7, 6 h): 100
ERRB4 level (MCF7, 6 h): 100
FAS-L level (MCF7, 6 h): 111
GRP78 level (MCF7, 6 h): 115#
HDAC1 level (MCF7, 6 h): 99
HDAC2 level (MCF7, 6 h): 95
HDAC3 level (MCF7, 6 h): 101
HDAC4 level (MCF7, 6 h): 102
HDAC5 level (MCF7, 6 h): 98
HDAC6 level (MCF7, 6 h): 101
HDAC7 level (MCF7, 6 h): 101
HDAC8 level (MCF7, 6 h): 101
HDAC9 level (MCF7, 6 h): 100
HDAC10 level (MCF7, 6 h): 99
HDAC11 level (MCF7, 6 h): 99
IDO1 level (MCF7, 6 h): 96
JAK2 level (MCF7, 6 h): 100
JNK1/2 level (MCF7, 6 h): 100
LATS1/2 level (MCF7, 6 h): 100
MCL1 level (MCF7, 6 h): 91
MHCA level (MCF7, 6 h): 103
NEDD4 level (MCF7, 6 h): 97
NFkB level (MCF7, 6 h): 100
ODC level (MCF7, 6 h): 101
P-89 (TAZ) level (MCF7, 6 h): 103
P-109 (YAP) level (MCF7, 6 h): 104
P-127 (YAP) level (MCF7, 6 h): 104
P-317 (ULK1) level (MCF7, 6 h): 113#
P-397 (YAP) level (MCF7, 6 h): 99
P-757 (ULK1) level (MCF7, 6 h): 98
P-909 (LATS1/2) level (MCF7, 6 h): 99
P-1079 (LATS1/2) level (MCF7, 6 h): 112
P-AMPKa level (MCF7, 6 h): 117#
P-ATG13 level (MCF7, 6 h): 118#
P-ATM level (MCF7, 6 h): 109
P-ERBB1 level (MCF7, 6 h): 100
P-ERBB2 level (MCF7, 6 h): 100
P-ERBB3 level (MCF7, 6 h): 114#
P-ERBB4 level (MCF7, 6 h): 106
P-ERK level (MCF7, 6 h): 99
P-JAK2 level (MCF7, 6 h): 100
P-JNK level (MCF7, 6 h): 90
P-KIT level (MCF7, 6 h): 100
P-MET level (MCF7, 6 h): 96
P-NFkB level (MCF7, 6 h): 99
P-PDGFRb level (MCF7, 6 h): 105
P-PERK level (MCF7, 6 h): 103
P-S2448 (mTOR) level (MCF7, 6 h): 98
P-S2481 (mTOR) level (MCF7, 6 h): 96
P-T308 (AKT) level (MCF7, 6 h): 107
P-Y694 (STAT5) level (MCF7, 6 h): 98
P-Y705 (STAT3) level (MCF7, 6 h): 98
P-eIF2a level (MCF7, 6 h): 110
P-p38 level (MCF7, 6 h): 100
P-p70 T389 level (MCF7, 6 h): 110
PD-L1 level (MCF7, 6 h): 98
PD-L2 level (MCF7, 6 h): 98
PDGFRb level (MCF7, 6 h): 99
PERK level (MCF7, 6 h): 101
PP1 level (MCF7, 6 h): 99
PTEN level (MCF7, 6 h): 103
STAT3 level (MCF7, 6 h): 100
STAT5 level (MCF7, 6 h): 100
TAZ level (MCF7, 6 h): 100
ULK1 level (MCF7, 6 h): 100
Y416 (c-SRC) level (MCF7, 6 h): 101
Y527 (c-SRC) level (MCF7, 6 h): 103
YAP level (MCF7, 6 h): 99
c-KIT level (MCF7, 6 h): 102
c-MET level (MCF7, 6 h): 99
c-SRC level (MCF7, 6 h): 101
eIF2a level (MCF7, 6 h): 100
mTOR level (MCF7, 6 h): 100
p38 level (MCF7, 6 h): 103
p70 S6K level (MCF7, 6 h): 100
P-ERBB3 level (MCF7, 6 h, listed as Palbo): 114

— patent US20220008359A1, “COMBINATION ANTI-CANCER PRODUCTS AND METHODS” (priority 2020, published 2022)
